The target of one assay is Chk-1 kinase (Homo sapiens (Human), UniProt O14757). The assay is described as follows: Chk-1 kinase inhibiting activity (33P-ATP radiometric filter assay, CHKtide substrate). The note with it: recombinant full length GST-tagged CHK-1 0.5 nM, CHKtide 20 μM, 120 minutes at room temperature; read-out: IC50 against Chk-1 kinase. The format is biochemical. Here is the method:
The compounds of the invention were tested for activity against Chk-1 kinase using the materials and protocols set out below.
Base Reaction buffer: 20 mM Hepes (pH 7.5), 10 mM MgCl2, 1 mM EGTA, 0.02% Brij35, 0.02 mg/ml BSA, 0.1 mM Na3VO4, 2 mM DTT, 1% DMSO
Required cofactors are added individually to each kinase reaction
(i) Prepare indicated substrate in freshly prepared Base Reaction Buffer
(ii) Deliver any required cofactors to the substrate solution above
(iii) Deliver indicated kinase into the substrate solution and gently mix
(iv) Deliver compounds in DMSO into the kinase reaction mixture
(v) Deliver ^33P-ATP (specific activity 0.01 μCi/μl final) into the reaction mixture to initiate the reaction.
(vi) Incubate kinase reaction for 120 minutes at room temperature
(vii) Reactions are spotted onto P81 ion exchange paper (Whatman #3698-915)
(viii) Wash filters extensively in 0.1% phosphoric acid.
(ix) Dry filters and measure counts in scintillation counter
Recombinant full length construct, N-terminal GST tagged, purified from insect cells.
No special measures were taken to activate this kinase.
Final concentration in assay=0.5 nM
Peptide sequence: [[…]]
Final concentration in assay=20 μM
No additional cofactors are added to the reaction mixture
From the results obtained by following the above protocol, the IC50 values against Chk-1 kinase of a number of the compounds of the Examples were determined and these are shown in Table 3.

Another assay has as its system MV4-11 cells. The experiment in a line: Inhibition of cell growth in MV4-11 cells (Alamar blue, 72 h). The format is cell-based. The following applies: Homo sapiens, 72 h incubation. How it is done:
(§1) Studies were carried out to test the effect of compounds on the inhibition of cell growth in MOLM-13 and MV4-11 cells.
(§2) The following protocol was used:
(§3) (a) Cells were seeded in 96-well plates at cell densities of 2500/well (MOLM-13) and 10,000/well (MV4-11). Cells were then incubated overnight prior to addition of compound or vehicle control.
(§4) (b) Test compounds were prepared from 10 mM DMSO stocks to give a final concentration range of 10 μM, 3 μM, 1 μM, 0.3 μM, […], 0.03 μM, 0.01 μM, […] vehicle control. The DMSO content was constant at 0.1%.
(§5) (c) Test compounds were incubated with the cells for 72 h at 37° C. 5% CO2 in a humidified atmosphere.
(§6) (d) Alamar blue 10% (v/v) was then added and incubated for a further 4 h, and fluorescent product detected using the BMG FLUOstar plate reader.
(§7) (e) Media only background values were subtracted and the data analysed using a 4-parameter logistic equation in GraphPad Prism.

A further assay deals with MOLM-13 cells. The assay is described as follows: Inhibition of cell growth in MOLM-13 cells (Alamar blue, 72 h). The following applies: Homo sapiens, 72 h incubation. The format is cell-based. Here is the method:
as §1, §2, §3, §4, §5, §6, §7
On the technique in general: Alamar Blue is a resazurin reagent that responds to reducing activity.

Structures are written as SMILES. Counter-ions that a name gives are not always drawn.

Chain of Chk-1 kinase (O14757 whole entry): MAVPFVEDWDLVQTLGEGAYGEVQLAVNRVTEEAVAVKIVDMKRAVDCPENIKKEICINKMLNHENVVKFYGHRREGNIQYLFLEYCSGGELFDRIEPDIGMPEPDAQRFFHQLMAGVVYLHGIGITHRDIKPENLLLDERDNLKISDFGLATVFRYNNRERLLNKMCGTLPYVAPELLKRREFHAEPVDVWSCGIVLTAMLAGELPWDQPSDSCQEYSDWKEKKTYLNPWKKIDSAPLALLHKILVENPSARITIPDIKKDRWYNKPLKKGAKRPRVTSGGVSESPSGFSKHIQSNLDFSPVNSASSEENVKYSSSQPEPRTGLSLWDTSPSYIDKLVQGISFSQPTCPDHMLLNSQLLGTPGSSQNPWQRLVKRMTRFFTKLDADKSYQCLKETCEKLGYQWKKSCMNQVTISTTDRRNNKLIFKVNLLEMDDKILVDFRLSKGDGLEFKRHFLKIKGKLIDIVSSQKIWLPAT

As for `COc1cc(CCNC(=O)CN2CCOCC2)c(Cl)cc1NC(=O)Nc1cnc(C#N)cn1` [Example 16, N-(2-{2-Chloro-4-[3-(5-cyano-pyrazin-2-yl)-ureido]-5-methoxy-phenyl}-ethyl)-2-morpholin-4-yl-acetamide hydrochloride], on Chk-1 kinase, the IC50 – broadly, the concentration that gives 50% inhibition – worked out at 76 nM.

As for `COc1cc(CCN[C@H](C)C2CCN(S(C)(=O)=O)CC2)c(Cl)cc1NC(=O)Nc1cnc(C#N)cn1` [Example 13, 1-(5-Chloro-4-{2-[(R)-1-(1-methanesulfonyl-piperidin-4-yl)-ethylamino]-ethyl}-2-methoxy-phenyl)-3-(5-cyano-pyrazin-2-yl)-urea hydrochloride], the half-inhibitory concentration (IC50) at Chk-1 kinase is 0.27 nM.

`COc1cc(CCN[C@@H](C)CN2CCOCC2)c(Cl)cc1NC(=O)Nc1cnc(C#N)cn1` [Example 18, 1-{5-Chloro-2-methoxy-4-[2-((S)-1-methyl-2-morpholin-4-yl-ethylamino)-ethyl]-phenyl}-3-(5-cyano-pyrazin-2-yl)-urea hydrochloride]: the half-maximal inhibitory concentration (IC50) at Chk-1 kinase was found to be 0.52 nM; in the assay with MV4-11 cells, 175 nM.

For the compound `COc1cc(CCN[C@@H](C)CN2CCOCC2)ccc1NC(=O)Nc1cnc(C#N)cn1` [Example 23, 1-(5-Cyano-pyrazin-2-yl)-3-{2-methoxy-4-[2-((S)-1-methyl-2-morpholin-4-yl-ethylamino)-ethyl]-phenyl}-urea hydrochloride], the IC50 on Chk-1 kinase came out at 19 nM; in the assay with MV4-11 cells, 4790 nM.

As to `COc1cc(OCCNCCN2CCOCC2)c(Cl)cc1NC(=O)Nc1cnc(C#N)cn1` [Example 25, 1-{5-Chloro-2-methoxy-4-[2-(2-morpholin-4-yl-ethylamino)-ethoxy]-phenyl}-3-(5-cyano-pyrazin-2-yl)-urea hydrochloride], at Chk-1 kinase, the IC50 is 0.61 nM.

Turning to `COc1cc(CCN[C@H](C)CN2CCOCC2)c(Cl)cc1NC(=O)Nc1cnc(C#N)cn1` [Example 24, 1-{5-Chloro-2-methoxy-4-[2-((R)-1-methyl-2-morpholin-4-yl-ethylamino)-ethyl]-phenyl}-3-(5-cyano-pyrazin-2-yl)-urea hydrochloride], the half-maximal inhibitory concentration (IC50) at Chk-1 kinase came to 1.1 nM.

As for `COc1cc(CCNC(=O)[C@H]2CNCCO2)c(Cl)cc1NC(=O)Nc1cnc(C#N)cn1` [Example 15, (R)-Morpholine-2-carboxylic acid (2-{2-chloro-4-[3-(5-cyano-pyrazin-2-yl)-ureido]-5-methoxy-phenyl}-ethyl)-amide hydrochloride], the IC50 on Chk-1 kinase stood at 20 nM.

For the compound `COc1cc(CCNCC(=O)N2CCN(C)CC2)c(Cl)cc1NC(=O)Nc1cnc(C#N)cn1` [Example 26, 1-(5-Chloro-2-methoxy-4-{2-[2-(4-methyl-piperazin-1-yl)-2-oxo-ethylamino]-ethyl}-phenyl)-3-(5-cyano-pyrazin-2-yl)-urea hydrochloride], the values for the IC50 on Chk-1 kinase and with MV4-11 cells were 0.58 nM and 800 nM, respectively.

With `COc1cc(CCN[C@@H](C)C2CCN(S(C)(=O)=O)CC2)c(Cl)cc1NC(=O)Nc1cnc(C#N)cn1` [Example 11, 1-(5-Chloro-4-{2-[(S)-1-(1-methanesulfonyl-piperidin-4-yl)-ethylamino]-ethyl}-2-methoxy-phenyl)-3-(5-cyano-pyrazin-2-yl)-urea hydrochloride], the IC50 at Chk-1 kinase was 0.28 nM; in the assay with MOLM-13 cells it was 59 nM; in the assay on MV4-11 cells, 231 nM.

For the compound `COc1cc(CCNC[C@H]2CN(C(=O)C3CC3)CCO2)c(Cl)cc1NC(=O)Nc1cnc(C#N)cn1` [Example 14, 1-(5-Chloro-4-{2-[((S)-4-cyclopropanecarbonyl-morpholin-2-ylmethyl)-amino]-ethyl}-2-methoxy-phenyl)-3-(5-cyano-pyrazin-2-yl)-urea hydrochloride], the IC50 turned out to be 0.4 nM on Chk-1 kinase and 202 nM in the assay with MV4-11 cells.

As for `CC(C)Oc1cc(CCN[C@@H](C)C(=O)N2CCOCC2)ccc1NC(=O)Nc1cnc(C#N)cn1` [Example 30, 1-(5-Cyano-pyrazin-2-yl)-3-{2-isopropoxy-4-[2-((S)-1-methyl-2-morpholin-4-yl-2-oxo-ethylamino)-ethyl]-phenyl}-urea hydrochloride], the IC50 at Chk-1 kinase turned out to be 2.9 nM.

Consider `COc1cc(CCNCC2CCNCC2)c(Cl)cc1NC(=O)Nc1cnc(C#N)cn1` [Example 1, 1-(5-Chloro-2-methoxy-4-{2-[(piperidin-4-ylmethyl)-amino]-ethyl}-phenyl)-3-(5-cyano-pyrazin-2-yl)-urea hydrochloride], for which the IC50 amounted to 0.1 nM at Chk-1 kinase, 240 nM in the assay on MOLM-13 cells and 386 nM with MV4-11 cells.

In the case of `N#Cc1cnc(NC(=O)Nc2ccc(CCNCC3CCCCC3)c(Cl)c2)cn1` [Example 12, 1-{3-Chloro-4-[2-(cyclo-hexylmethyl-amino)-ethyl]-phenyl}-3-(5-cyano-pyrazin-2-yl)-urea hydrochloride], the half-maximal inhibitory concentration (IC50) at Chk-1 kinase was 30 nM; with MOLM-13 cells, 1600 nM; in the assay with MV4-11 cells it was 740 nM.

Consider `CC(C)Oc1cc(CCNC(=O)[C@H]2CNCCO2)c(Cl)cc1NC(=O)Nc1cnc(C#N)cn1` [Example 20, (R)-Morpholine-2-carboxylic acid (2-{2-chloro-4-[3-(5-cyano-pyrazin-2-yl)-ureido]-5-isopropoxy-phenyl}-ethyl)-amide hydrochloride], for which the IC50 on Chk-1 kinase is 7.1 nM.

For `CC(C)Oc1cc(CCNC(=O)CN2CCN(C)CC2)c(Cl)cc1NC(=O)Nc1cnc(C#N)cn1` [Example 22, N-(2-{2-Chloro-4-[3-(5-cyano-pyrazin-2-yl)-ureido]-5-isopropoxy-phenyl}-ethyl)-2-(4-methyl-piperazin-1-yl)-acetamide hydrochloride], the half-maximal inhibitory concentration (IC50) on Chk-1 kinase was determined as 8.2 nM; with MV4-11 cells, 519 nM.

`COc1cc(CCNC[C@H]2CN(C(=O)C3CC3)CCO2)ccc1NC(=O)Nc1cnc(C#N)cn1` [Example 21, 1-(5-Cyano-pyrazin-2-yl)-3-(4-{2-[((S)-4-cyclopropanecarbonyl-morpholin-2-ylmethyl)-amino]-ethyl}-2-methoxy-phenyl)-urea hydrochloride]: the IC50 was 10 nM on Chk-1 kinase and 3760 nM with MV4-11 cells.

For `CC(C)Oc1cc(CCNCC(=O)N2CCOCC2)c(Cl)cc1NC(=O)Nc1cnc(C#N)cn1` [Example 27, 1-{5-Chloro-2-isopropoxy-4-[2-(2-morpholin-4-yl-2-oxo-ethylamino)-ethyl]-phenyl}-3-(5-cyano-pyrazin-2-yl)-urea hydrochloride], the half-inhibitory concentration (IC50) on Chk-1 kinase stood at 0.21 nM; with MV4-11 cells, 135 nM.

As for `COc1cc(CCN[C@@H](C)C(=O)N2CCOCC2)c(Cl)cc1NC(=O)Nc1cnc(C#N)cn1` [Example 28, 1-{5-Chloro-2-methoxy-4-[2-((S)-1-methyl-2-morpholin-4-yl-2-oxo-ethylamino)-ethyl]-phenyl}-3-(5-cyano-pyrazin-2-yl)-urea hydrochloride], the IC50 on Chk-1 kinase came to 0.48 nM; in the assay with MV4-11 cells it was 390 nM.

Consider `COc1cc(CCNC(=O)CN2CCN(C)CC2)c(Cl)cc1NC(=O)Nc1cnc(C#N)cn1` [Example 17, N-(2-{2-Chloro-4-[3-(5-cyano-pyrazin-2-yl)-ureido]-5-methoxy-phenyl}-ethyl)-2-(4-methyl-piperazin-1-yl)-acetamide hydrochloride], for which the half-maximal inhibitory concentration (IC50) on Chk-1 kinase stood at 13 nM.

Take `COc1cc(CCNCC(=O)N2CCOCC2)c(Cl)cc1NC(=O)Nc1cnc(C#N)cn1` [Example 19, 1-{5-Chloro-2-methoxy-4-[2-(2-morpholin-4-yl-2-oxo-ethylamino)-ethyl]-phenyl}-3-(5-cyano-pyrazin-2-yl)-urea hydrochloride]: the IC50 on Chk-1 kinase turned out to be 1.9 nM; with MV4-11 cells it was 481 nM.

The values are drawn from US9630931B2, “Pharmaceutically active pyrazine derivatives” (Sentinel Oncology Limited, priority 2011, dated 2017).
